Values quoted from earlier work in patent publication US20240156825A1, “USE OF SELECTIVE VEGFR2 AND FGFR1 INHIBITORS” (Fountain Therapeutics Inc., priority 2022, published 2024).
Where two headings read alike, the source gives them in different places.

What was measured:
[1] = biological target: VEGFR2 (Homo sapiens, UniProt P35968); conditions: reported IC50 to VEGFR2, read-out: VEGFR2 IC50_μM, cited from earlier work
[2] = test system: any gene target; conditions: next lowest IC50 value to any gene target, read-out: Min IC50_μM, cited from earlier work
[3] = Table 3, selective inhibitors of VEGFR2

Chain of VEGFR2 (P35968 20-1356, species assumed): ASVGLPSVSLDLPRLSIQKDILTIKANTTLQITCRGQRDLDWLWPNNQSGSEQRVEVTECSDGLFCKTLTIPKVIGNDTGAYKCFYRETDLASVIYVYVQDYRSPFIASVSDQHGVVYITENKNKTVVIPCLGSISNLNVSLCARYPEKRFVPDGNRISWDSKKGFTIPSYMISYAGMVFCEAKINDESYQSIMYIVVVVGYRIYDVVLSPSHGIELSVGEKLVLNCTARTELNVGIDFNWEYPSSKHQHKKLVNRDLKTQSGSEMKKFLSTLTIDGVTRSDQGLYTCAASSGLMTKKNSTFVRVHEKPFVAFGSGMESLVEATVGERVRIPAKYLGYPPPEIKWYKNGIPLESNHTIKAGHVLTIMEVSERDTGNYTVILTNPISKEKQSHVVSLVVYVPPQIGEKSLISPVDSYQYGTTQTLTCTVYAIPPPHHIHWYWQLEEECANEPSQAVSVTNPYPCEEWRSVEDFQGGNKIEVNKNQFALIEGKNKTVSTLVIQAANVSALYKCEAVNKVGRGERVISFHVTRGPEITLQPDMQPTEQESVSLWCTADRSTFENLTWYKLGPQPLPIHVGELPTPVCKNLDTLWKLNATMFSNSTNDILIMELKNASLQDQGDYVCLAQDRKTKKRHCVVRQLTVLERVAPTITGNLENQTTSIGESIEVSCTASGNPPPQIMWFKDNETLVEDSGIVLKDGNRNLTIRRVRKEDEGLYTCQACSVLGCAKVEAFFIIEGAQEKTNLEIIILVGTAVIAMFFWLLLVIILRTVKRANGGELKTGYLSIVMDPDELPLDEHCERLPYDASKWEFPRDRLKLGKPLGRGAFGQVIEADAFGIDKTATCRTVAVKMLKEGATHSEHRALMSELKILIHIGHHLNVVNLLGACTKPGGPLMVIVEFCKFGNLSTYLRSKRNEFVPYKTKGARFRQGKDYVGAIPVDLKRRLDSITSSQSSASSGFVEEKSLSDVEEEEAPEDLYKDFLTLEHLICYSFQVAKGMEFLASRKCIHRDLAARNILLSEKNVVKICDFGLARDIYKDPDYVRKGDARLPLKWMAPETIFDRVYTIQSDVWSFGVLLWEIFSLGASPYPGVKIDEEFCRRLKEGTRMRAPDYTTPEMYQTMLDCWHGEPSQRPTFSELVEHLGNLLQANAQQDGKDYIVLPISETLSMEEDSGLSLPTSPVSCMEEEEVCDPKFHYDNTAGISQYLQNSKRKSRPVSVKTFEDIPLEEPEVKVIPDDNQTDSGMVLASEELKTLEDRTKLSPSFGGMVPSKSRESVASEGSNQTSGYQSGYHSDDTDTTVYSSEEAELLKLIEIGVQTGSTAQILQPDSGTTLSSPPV

Row | Structure (SMILES) | IC50 [1, 3] | IC50 ([2]; Table 3) | IC50 [1] | IC50 [2]
1 | COc1cc2c(Nc3ccc(Cl)c(Cl)c3F)ncnc2cc1OC[C@@H]1CN(C)CC(=O)N1C [compound 57802574] | 0.05 µM | 0.05 µM |  | 
2 | CC(C)Oc1cc2c(Nc3ccc(Cl)c(Cl)c3)ncnc2cc1OCC1CNCCO1 (centres unmarked) [compound 57802576] | 0.05 µM | 0.05 µM |  | 
3 | COc1cc2c(Nc3ccc(Br)c(Cl)c3Cl)ncnc2cc1OCC1CN(C)C(C)(C)CO1 (centres unmarked) [compound 57802578] |  |  | 0.05 µM | 0.05 µM
4 | COc1cc2c(Nc3ccc(Cl)c(Cl)c3)ncnc2cc1OC[C@@H]1CN2CCC[C@@H]2CO1 [compound 57802582] | 0.05 µM | 0.05 µM |  | 
5 | COc1cc2c(Nc3ccc(Cl)c(Cl)c3C)ncnc2cc1OCC1CN(C)CCO1 (centres unmarked) [compound 57802584] | 0.05 µM | 0.05 µM |  | 
6 | COc1cc2c(Nc3ccc(Cl)c(Cl)c3F)ncnc2cc1OCC1CN(C)CCO1 (centres unmarked) [compound 57802591] | 0.05 µM | 0.05 µM |  | 
7 | COc1cc2c(Nc3cc(Cl)c(Cl)c(Cl)c3)ncnc2cc1OCC1CN(C)CCO1 (centres unmarked) [compound 57802593] | 0.05 µM | 0.05 µM |  | 
8 | COc1cc2c(Nc3ccc(Cl)c(Cl)c3)ncnc2cc1OCC1CN(CC(N)=O)CCO1 (centres unmarked) [compound 57802603] | 0.05 µM | 0.05 µM |  | 
9 | COc1cc2c(Nc3ccc(Cl)c(Cl)c3)ncnc2cc1OCc1nc(N2CCN(C)CC2)no1 [compound 57802605] | 0.05 µM | 0.05 µM |  | 
10 | COc1cc2c(Nc3ccc(Cl)c(Cl)c3)ncnc2cc1OCc1csc(C2CCCN(C)C2)n1 (centres unmarked) [compound 57802607] | 0.05 µM | 0.05 µM |  | 
11 | COc1cc2c(Nc3ccc(Cl)c(Cl)c3)ncnc2cc1OCC1CN(CCCCCC#N)CCO1 (centres unmarked) [compound 57802611] | 0.05 µM | 0.05 µM |  | 
12 | CCN1CCCOC(COc2cc3ncnc(Nc4ccc(Cl)c(Cl)c4)c3cc2OC)C1 (centres unmarked) [compound 57802623] | 0.05 µM | 0.05 µM |  | 
13 | COc1cc2c(Nc3ccc(Cl)c(Cl)c3)ncnc2cc1OCCC1CNC(C)(C)CO1 (centres unmarked) [compound 57802637] |  |  | 0.05 µM | 0.05 µM
14 | COc1cc2c(Nc3ccc(Cl)c(Cl)c3F)ncnc2cc1OC[C@@H]1CN(C)CC(=O)N1 [compound 57802639] | 0.05 µM | 0.05 µM |  | 
15 | COc1cc2c(Nc3ccc(Cl)c(Cl)c3)ncnc2cc1OCC1CC1 [compound 57802643] |  |  | 0.05 µM | 0.05 µM
16 | COc1cc2c(Nc3ccc(F)c(Cl)c3F)ncnc2cc1OCC1CN(C)C(C)(C)CO1 (centres unmarked) [compound 57802650] |  |  | 0.05 µM | 0.05 µM
17 | COc1cc2c(Nc3ccc(Cl)c(Cl)c3F)ncnc2cc1OCC1CN(C)C(C)(C)CO1 (centres unmarked) [compound 57802653] |  |  | 0.05 µM | 0.05 µM
18 | COc1cc2c(Nc3ccc(Cl)c(Cl)c3)ncnc2cc1OCC1CN(S(=O)(=O)CCCCl)CCO1 (centres unmarked) [compound 57802656] |  |  | 0.05 µM | 0.05 µM
19 | COc1cc2c(Nc3ccc(Cl)c(Cl)c3)ncnc2cc1OCC1CN(C)C(C)(C)CO1 (centres unmarked) [compound 57802660] |  |  | 0.05 µM | 0.05 µM
20 | COc1cc2c(Nc3ccc(Br)c(Cl)c3Cl)ncnc2cc1OCC1CN(C)CCO1 (centres unmarked) [compound 57802669] |  |  | 0.05 µM | 0.05 µM
21 | CCCN1CCCOC(COc2cc3ncnc(Nc4ccc(Cl)c(Cl)c4)c3cc2OC)C1 (centres unmarked) [compound 57802675] |  |  | 0.05 µM | 0.05 µM

Row | Structure (SMILES) | IC50 [1, 3] | IC50 ([2]; Table 3) | IC50 [1] | IC50 [2]
22 | COc1cc2c(Nc3ccc(Cl)c(Cl)c3)ncnc2cc1OC[C@@H]1CN2CCC[C@H]2CO1 [compound 57802678] |  |  | 0.05 µM | 0.05 µM
23 | COc1cc2c(Nc3ccc(Cl)c(Cl)c3)ncnc2cc1OCc1nc(N2CCNCC2)no1 [compound 57802679] |  |  | 0.05 µM | 0.05 µM
24 | COc1cc2c(Nc3ccc(F)c(Cl)c3F)ncnc2cc1OCC1CN(C)CCO1 (centres unmarked) [compound 57802680] |  |  | 0.05 µM | 0.05 µM
25 | COc1cc2c(Nc3ccc(Cl)c(Cl)c3)ncnc2cc1OCC1CN(C(=O)c2cccnc2Cl)CCO1 (centres unmarked) [compound 57802694] |  |  | 0.05 µM | 0.05 µM
26 | CCOc1cc2c(Nc3ccc(Cl)c(Cl)c3)ncnc2cc1OCC1CN(C)CCO1 (centres unmarked) [compound 57802695] |  |  | 0.05 µM | 0.05 µM
27 | COc1cc2c(Nc3ccc(Cl)c(Cl)c3)ncnc2cc1OCC1CN2CSC[C@H]2CO1 (some centres unmarked) [compound 57802698] |  |  | 0.05 µM | 0.05 µM
28 | CCOc1cc2c(Nc3ccc(Cl)c(Cl)c3)ncnc2cc1OCC1CNCCO1 (centres unmarked) [compound 57802713] |  |  | 0.05 µM | 0.05 µM
29 | COc1cc2c(Nc3ccc(Br)c(Cl)c3F)ncnc2cc1OC[C@@H]1CN(C)CC(=O)N1C [compound 57802721] |  |  | 0.05 µM | 0.05 µM
30 | COc1cc2c(Nc3ccc(Br)c(Cl)c3Cl)ncnc2cc1OC[C@@H]1CN2CCC[C@H]2CO1 [compound 57802722] |  |  | 0.05 µM | 0.05 µM
31 | COc1cc2c(Nc3ccc(Cl)c(Cl)c3)ncnc2cc1OCC1CN(C(C)=O)CCCO1 (centres unmarked) [compound 57802725] |  |  | 0.05 µM | 0.05 µM
32 | COc1cc2c(Nc3ccc(Cl)c(Cl)c3)ncnc2cc1OCCC1CN(C)CC(C)(C)O1 (centres unmarked) [compound 57802732] |  |  | 0.05 µM | 0.05 µM
33 | COc1cc2c(Nc3ccc(Cl)c(Cl)c3)ncnc2cc1OCC1CN(C(=NC#N)N2CCCCC2)CCO1 (centres unmarked) [compound 57802736] |  |  | 0.05 µM | 0.05 µM
34 | CCN1CCOC(COc2cc3ncnc(Nc4ccc(Cl)c(Cl)c4)c3cc2OC)C1 (centres unmarked) [compound 57802737] |  |  | 0.05 µM | 0.05 µM
35 | COc1cc2c(Nc3ccc(Br)c(Cl)c3F)ncnc2cc1OCC1CN(C)C(C)(C)CO1 (centres unmarked) [compound 57802747] |  |  | 0.05 µM | 0.05 µM
36 | COc1cc2c(Nc3ccc(Cl)c(Cl)c3)ncnc2cc1OCCN1C(=O)c2ccccc2C1=O [compound 57802754] |  |  | 0.05 µM | 0.05 µM
37 | COc1cc2c(Nc3ccc(Br)c(Cl)c3)ncnc2cc1OCC1CN(C)CCO1 (centres unmarked) [compound 57802766] |  |  | 0.05 µM | 0.05 µM
38 | COc1cc2c(Nc3cc(Cl)c(Br)cc3F)ncnc2cc1OCC1CN(C)C(C)(C)CO1 (centres unmarked) [compound 57802776] |  |  | 0.05 µM | 0.05 µM
39 | COc1cc2c(Nc3ccc(C)c(Cl)c3Cl)ncnc2cc1OCC1CN(C)CCO1 (centres unmarked) [compound 57802779] |  |  | 0.05 µM | 0.05 µM
40 | COc1cc2c(Nc3ccc(Br)c(Cl)c3)ncnc2cc1OC1CCN(C)C1 (centres unmarked) [compound 57802786] |  |  | 0.05 µM | 0.05 µM
41 | COc1cc2c(Nc3ccc(Cl)c(Cl)c3F)ncnc2cc1OC[C@@H]1CN2CCC[C@H]2CO1 [compound 57802793] | 0.05 µM | 0.05 µM |  | 
42 | CC(C)Oc1cc2c(Nc3ccc(Cl)c(Cl)c3)ncnc2cc1OCC1CN(C)CCO1 (centres unmarked) [compound 57802797] |  |  | 0.05 µM | 0.05 µM

Row | Structure (SMILES) | IC50 [1, 3] | IC50 ([2]; Table 3) | IC50 [1] | IC50 [2]
43 | COc1cc2c(Nc3ccc(Cl)c(Cl)c3)ncnc2cc1OC[C@@H]1O[C@@H](OC)[C@@H](O)[C@H](O)[C@H]1O [compound 57802800] |  |  | 0.05 µM | 0.05 µM
44 | COc1cc2c(Nc3ccc(Cl)c(Cl)c3Cl)ncnc2cc1OCC1CN(C)CCO1 (centres unmarked) [compound 57802801] |  |  | 0.05 µM | 0.05 µM
45 | COc1cc2c(Nc3ccc(Br)c(Cl)c3F)ncnc2cc1OC[C@@H]1CN2CCC[C@H]2C(=O)N1 [compound 57802807] |  |  | 0.05 µM | 0.05 µM
46 | CCS(=O)(=O)N1CCOC(COc2cc3ncnc(Nc4ccc(Cl)c(Cl)c4)c3cc2OC)C1 (centres unmarked) [compound 57802817] | 0.05 µM | 0.05 µM |  | 
47 | COc1cc2c(Nc3ccc(Cl)c(Cl)c3)ncnc2cc1OCC1CN(C)C(C)(C)C(=O)O1 (centres unmarked) [compound 57802818] | 0.05 µM | 0.05 µM |  | 
48 | CCCCN1CCOC(COc2cc3ncnc(Nc4ccc(Cl)c(Cl)c4)c3cc2OC)C1 (centres unmarked) [compound 57802833] | 0.05 µM | 0.05 µM |  | 
49 | COc1cc2c(Nc3ccc(Br)c(C)c3)ncnc2cc1OCC1CN(C)CCO1 (centres unmarked) [compound 57802842] | 0.05 µM | 0.05 µM |  | 
50 | COc1cc2c(Nc3cc(F)c(Br)c(F)c3)ncnc2cc1OCC1CN(C)CCO1 (centres unmarked) [compound 57802849] | 0.05 µM | 0.05 µM |  | 
51 | COc1cc2c(Nc3cc(Cl)c(Cl)cc3F)ncnc2cc1OCC1CN(C)C(C)(C)CO1 (centres unmarked) [compound 57802853] | 0.05 µM | 0.05 µM |  | 
52 | COc1cc2c(Nc3ccc(Cl)c(Cl)c3)ncnc2cc1OCc1csc(C2CCN(C)CC2)n1 [compound 57802861] | 0.05 µM | 0.05 µM |  | 
53 | COc1cc2c(Nc3ccc(Cl)c(Cl)c3)ncnc2cc1OCc1csc(C2CCCCN2)n1 (centres unmarked) [compound 57802866] | 0.05 µM | 0.05 µM |  | 
54 | COc1cc2c(Nc3ccc(Br)c(Cl)c3C)ncnc2cc1OCC1CN(C)CCO1 (centres unmarked) [compound 57802867] | 0.05 µM | 0.05 µM |  | 
55 | COc1cc2c(Nc3ccc(Cl)c(Cl)c3)ncnc2cc1OCC1CN(C(=O)C2CCCC2)CCO1 (centres unmarked) [compound 57802868] | 0.05 µM | 0.05 µM |  | 
56 | COc1cc2c(Nc3ccc(Cl)c(Cl)c3)ncnc2cc1OCC1CN(C(=O)c2c(C)noc2C)CCO1 (centres unmarked) [compound 57802871] | 0.05 µM | 0.05 µM |  | 
57 | COc1cc2c(Nc3ccc(Cl)c(Cl)c3)ncnc2cc1OCC1CN(C(N)=NC#N)CCO1 (centres unmarked) [compound 57802878] | 0.05 µM | 0.05 µM |  | 
58 | COc1cc2c(Nc3ccc(Cl)c(Cl)c3)ncnc2cc1OC[C@H]1CN2CCC[C@@H]2CO1 [compound 57802880] | 0.05 µM | 0.05 µM |  | 
59 | COc1cc2c(Nc3ccc(Cl)c(Cl)c3)ncnc2cc1OCCC1CN(C)C(C)(C)CO1 (centres unmarked) [compound 57802889] | 0.05 µM | 0.05 µM |  | 
60 | COc1cc2c(Nc3ccc(Br)c(Cl)c3F)ncnc2cc1OC[C@@H]1CN(C)CC(=O)N1 [compound 57802892] | 0.05 µM | 0.05 µM |  | 
61 | COc1cc2c(Nc3ccc(Cl)c(Cl)c3)ncnc2cc1OCC1CN(S(C)(=O)=O)CCO1 (centres unmarked) [compound 57802901] | 0.05 µM | 0.05 µM |  | 
